# Read-outs that look alike come from different tables or passages of the source.
# Assays:
# [1] = in vivo, po, 1000 mg; cited from earlier work
# herpes viruses = settings: cited from earlier work
# [2] = system: Epstein-Barr virus persistent infection; assay: Example 2: valacyclovir treatment of EBV-isolated CFS patients; format: in vivo, human
# From the text: EBV-Isolated CFS Patients—Test of Antiviral Treatment. […] EBV active infection was documented by EBV VCA IgM antibodies and/or EBV EA elevated antibody titers. All of these patients had their energy levels reduced by 50% or more and were partially or entirely non-functional, unable to work or maintain a household. These ten patients had no diseases or complicating conditions which could have accounted for their chronic fatigue syndrome symptoms and they had no prior psychiatric diseases.
# Each patient's functional status was recorded as a statistically validated energy index (EI). At each out-patient visit, subjective evaluation of the patient's functional status was recorded using this energy index. The energy index records the average subjective vitality of the patient in the immediate 14 days prior to this specific out-patient visit. When minor illnesses such as the common cold complicated a visit, evaluation of the EI for a patient was delayed until the intercurrent problem receded.
# Prior to the initiation of the antiviral treatment and following approximately six months of treatment, objective evaluations of the ability to work and the energy index of each of the ten patients was analyzed.
# Pursuant to the energy index, a patient with a 0 energy index (EI) is bedridden. With an energy index of 1 or 2, any activity by the patient leads to overwhelming, incapacitating fatigue. Such patients are generally light-headed, unable to think clearly, and concentration is difficult for any extended period of time (over 60 minutes). Left-sided chest aches, palpitations, sore throats and feverishness are frequent. These patients may be out of bed for intermittent, brief periods of the day.
# Patients with an energy index between 3 and 5 can, with great effort, be out of bed for several hours each day doing non-physical activities. […] These patients express variable light-headedness, inability to think clearly or read normally. Left-sided chest aches, palpitations, sore throats and feverishness occur often. Patients within this energy range cannot perform a 40 hour sedentary job or maintain the duties of a homemaker including such activities as cooking and cleaning. In general, CFS patients have an energy index of 5 or less.
# Patients with an energy index between 6 and 9 can assume normal activities and maintain a 40 hour work week and, with pacing, maintain a household. […] These patients can do light physical work or exercise in moderation without fatigue.
# Patients with an energy index of 10 have normal energy levels, stamina and a sense of well-being. Light-headedness, difficulties in concentrating and reading ability and chest aches, palpitations, sore throats and feverishness are absent.
# During the initial and final clinical visits, each CFS patient was studied to determine the IgM antibodies to the EBV viral capsid antigen (VCA), total early antigens (EA), and enzyme immunoassays (ELISA) to HCMV IgM and HCMV ELISA IgG titers. An IgM EBV VCA antibody titer indicates infectious lytic EBV multiplication within the most recent 3 month period. During the EBV infectious lytic cycle, antigen is expressed which can be divided into a diffuse (EAD) complex and a cytoplasmic restricted EAR complex (EAR). As a result, each patient's EAD was assayed. The presence of EBV EA antibody indicates current EBV multiplication. Likewise, an elevated […] IgM antibody indicates recent EBV or HCMV multiplication, respectively. The EBV VCA antibody IgM titers were done by the ELISA method. As a control group, similar serum antibody titers were measured in 20 non-CFS individuals. In the non-CFS control group, the mean HCMV IgG titer was 240.
# Dosage. Each of the patients was administered an oral dose of valacyclovir at 10 mg/kg by mouth every six hours.
# Demographics. There were nine women and one person. Their ages ranged from 20-67 years. Their mean age was 43.3 years. […]
# [3] = system: human cytomegalovirus (nonstructural gene products p52 and CM2); assay: Example 4: Copalis antibody titers and fatigue after ganciclovir in HCMV CFS patients; format: in vivo
# From the text: This Copalis® method to CM2 and p52 measures IgM antibodies to HCMV non-structural gene products. The non-structural gene products are UL44, UL57. These gene products have been produced in E-coli. The UL44 and UL57 refer to the open reading frames (ORF) of the human cytomegalovirus genome. The UL44 has the function of a polymerase processivity factor known as p52. The UL57 is the second gene product which may be measured by the Copalis® method and its function is as a single-stranded (ss) DNA binding protein CM2. These are nonstructural gene products which are extruded from a cell with incomplete human cytomegalovirus multiplication. The Copalis® method measures antibodies to these two gene products with the purified antigens produced in E-coli.
# The Copalis® CMV Mutliplex assay is a homogenous test for the simultaneous determination of acute infection stages or immune status to Cytomegalovirus using coupled particle light scattering. Sized microparticles, coated with one of three antigens (p52, CM2, and CMV viral particle (VP)) are dried in the reaction cup. Early phase IgM antibodies are detected by both the CM2 and the p52 antigens. Antibody response to the CM2 antigen but not to the p52 antigen continues through the convalescent stage of acute infection. Antibodies to the VP may appear during acute infection but shall persist during life. Reactivity just (sucrose-density purified tissue culture produced complete HCMV cytomegalovirus) to the VP is characteristic of prior infection (indicative of immune status). Antibody detection, made by the Copalis® Immunoassay System, is reported qualitatively for the IgM analytes and semi-quantitatively for the total analyte.
# The Copalis® CMVplex Antibody Assay is based on the principle of antibody dependent particle aggregation as measured by the amount of light scattered. A typical antibody reactivity pattern (IgM and/or IgG) in the patient sample allows diagnosis of the infection as seronegative, acute or past infections. The CMVplex Test Cup has polystyrene microparticles of three sizes each coated with different specific antigens dried in the bottom. The Test Cup is reconstituted with reaction buffer by the instrument. The sample is then transferred into the reaction well and the mixture is agitated for 10 minutes. Upon completion of the agitation, the reaction mixture is transferred to the optical system for analysis.
# The level of aggregation is determined by discrimination of particle sizes and unreacted particles (monomers) as detected by the optical system. The quantity of assay particles remaining as monomers is compared to that of an unreacted baseline negative calibrator. A ratio is established between the counts of the two monomer particles. This ratio is reported as the Copalis® Test Result (CTR). The CTR is then converted into a numerical unit, Copalis® Index (CI), which determines the cutoff thresholds for each marker. Interpretation of results is based upon the CI. Results for the IgG marker (VP) are reported semi-quantitatively and qualitatively for the IgM markers (p52 and CM2).
# Results of Copalis® antibody testing in patients with the U.S. CDC-Chronic Fatigue Syndrome and various other patients with severe onset of […] fatigue. Group 1) Eight patients were studied with the chronic fatigue syndrome. They are six women and […] with ages ranging from 32 through 48. They had IgG antibodies to human cytomegalovirus. […] They would be evaluated as having past infection. […]
# HCMV = format: in vivo, human; settings: for mean energy index: six months later
# Method: HCMV-Isolated CFS Patients-Test of Antiviral Treatment. A study was conducted to assess the possible efficacy of ganciclovir treatment on a subset of CFS patients with (1) high HCMV IgG ELISA antibody titers; (2) minimal/no serologic evidence of concurrent EBV multiplication; and (3) oscillating ECG abnormalities at Holter monitoring. Patients. From March, 1993, through June, 1994, 3 men and 15 women with the mean age of 39.7 plus or minus 7.7 years, with CFS (as defined by the USA, Centers for Diseases Control criteria), were recruited from a single infectious diseases referral center in Birmingham, Mich. Approximately 50 patients with chronic fatigue syndrome were screened for inclusion in this study. […] In these 18 CFS patients, baseline standard 12 lead ECG, 2-D echocardiogram, rest-stress myocardial perfusion (thallium 201 or Tc-99 cardiolite) and rest-stress multiple […] acquisitions (MUGA) studies as well as coronary angiography excluded coronary artery disease. HCMV ELISA and HCMV ELISA IgG titers, as well as EBV capsid antigen (VCA), ELISA IgM and EBV total early antigens (EA) immunofluorescent antibody titers were assayed. Additionally, buffy coats, urine and myocardial biopsies were tested for infectious HCMV. […] Holter monitoring, MUGA studies and endomyocardial biopsies in these patients were done. Holter monitors, MUGA studies and endomyocardial biopsies were read blindly without knowledge of the patient. Also readings were repeated by at least one, and often several, other physician readers. A patient's 24-hour Holter monitor was considered positive if T-waves became intermittently inverted or flat. Labile T-wave abnormalities at Holter monitoring were present in each CFS patient. In addition to the Holter monitoring, at each outpatient visit, a subjective evaluation of the patient's functional status was recorded using the energy index (EI) as previously described. Infusions of Ganciclovir. After placement of a peripherally inserted central catheter (PICC) or a groshong catheter, ganciclovir was given intravenously in a dose of 5 mg. per kg. at 12-hour intervals for 30 days. Patients were seen once a week by the same physician and complete blood counts, SMA values and urinalysis were conducted. […] They were advised to avoid exercise, fatigue and alcohol and engage in regular sleeping patterns. Statistical Methods. Eighteen patients, 3 men and 15 women, all with CFS, with a mean age of 39.7 ranging from 29 to 51 years, were evaluated. Statistical significance between patients meeting the criteria for the HCMV subset and other patients with CFS were evaluated using tests of homogeneity of chi-square analysis and the two-tailed Fisher's exact test for bivariate analysis of dichotomous data.
# [4] = eight CFS patients, intravenous followed by oral ganciclovir
smiles,measurement,setting,value
CC(C)[C@H](N)C(=O)OCC(CO)OCn1cnc2c(=O)nc(N)[nH]c21 (stereo partly drawn) [valganciclovir],bioavailability (of ganciclovir),[1],60.9%
"O=C(O)P(=O)(O)O [Foscarnet sodium, trisodium phosphonoformate]",activity against herpes viruses,herpes viruses; in vitro and in vivo,potent in vitro and in vivo activity
O=c1[nH]c(=O)n([C@@H]2O[C@H](CO)[C@@H](O)[C@@H]2O)cc1/C=C/Br [bromovinyl arabinosyl uracil],inhibition of herpes viruses,"herpes viruses; herpes simplex virus Type 1, Epstein-Barr virus and VZV",significant inhibition
CC(C)[C@H](N)C(=O)OCCOCn1cnc2c(=O)[nH]c(N)nc21 [valacyclovir],mean energy index (EI) at completion of therapy,"[2]; 10 EBV CFS patients, 10 mg/kg by mouth every six hours, about six months, pre-therapy mean EI 4.7",7.5
same,median energy index (EI) at completion of therapy,"[2]; 10 EBV CFS patients, about six months of treatment",7
same,range of energy index (EI) at completion of therapy,"[2]; 10 EBV CFS patients, pre-therapy range 3.5 to 5.5",6-10
same,"patients with light-headedness, unsteadiness, inability to think well at completion of the trial",[2]; at beginning 9 out of 10,one of ten
same,patients with palpitations at completion of the trial,[2]; at beginning five out of ten,three out of ten
same,patients with positive EA antibody titers (≧10) at completion of the trial,[2]; at beginning seven out of ten,eight out of ten
same,patients with EBV VCA IgM positive titers at completion of the trial,[2]; before trial five out of ten,two out of ten
same,ability to work / activity level following treatment,"[2]; each of the ten patients, after approximately six months",able to fully engage in his/her activity level at work or home
same,patients with chest pain at completion of the trial,[2]; prior to therapy five out of ten,one out of ten
"Nc1nc2c(ncn2COC(CO)CO)c(=O)[nH]1 [ganciclovir, 9-(1,3-dihydroxy-2-propoxymethyl) guanine]",bioavailability (of ganciclovir),[1],5.6%
same,antibodies to nonstructural gene products p52 and CM2 (Copalis),[3]; [4],became markedly lower and disappeared
same,fatigue,[3]; [4],remarkably lessened
same,clinical outcome,"[3]; person positive only by p52, intravenous followed by oral ganciclovir",improved remarkably
same,cardiac function,"[3]; person with congestive heart failure and diabetes mellitus, intravenous",improved
same,CM2 antibodies (Copalis),"[3]; two CFS patients with high CM2, no elevated p52, intravenous followed by oral ganciclovir",lessened or disappeared
same,mean energy index,"HCMV; Group A (13 improved patients), start mean 3",7
same,"patients with improved MUGA test results (lesser tardokinesis, hypokinesis or left ventricular dilatation)","HCMV; Group A, after treatment",3 patients
same,patients with previously abnormal myocardial dynamics reverted to normal (MUGA),"HCMV; Group A, after treatment",3 patients
same,patients who resumed normal pre-CFS activity levels,HCMV; Group B,none
same,mean energy index,"HCMV; Group B (5 not improved patients), start mean 2",4
same,fatigue,HCMV; case study,disappeared
same,maximal cardiac ejection fraction,"HCMV; case study, a further five months later, from 54%",68%
same,resting ejection fraction (stress MUGA),"HCMV; case study, five months after 30 days i.v. treatment, before 40%",54%
same,increase of resting ejection fraction,"HCMV; case study, from 40% to 54%",14%
same,serum creatinine,"HCMV; human, in vivo",transient increase in serum creatinine
same,adverse events,"HCMV; human, in vivo, iv",no adverse events or symptoms attributable to ganciclovir
same,patients improved,"HCMV; of 18 CFS patients, 5 mg per kg i.v. at 12-hour intervals for 30 days",13 patients
same,MUGA study at follow up,"HCMV; one Group B patient with initial normal MUGA, 6 months after treatment",showed septal hypokinesis
same,clinical response,"HCMV; small preliminary subset of CFS patients with HCMV infection, no concurrent EBV multiplication",salutary response
same,activity level after antiviral treatment,HCMV; the 13 patients in Group A,resumed their normal pre-CFS activity levels
